From US7192906B2, “Substituted pyrazole derivatives, production process thereof, and herbicide compositions containing the derivatives” (SDS Biotech K.K., priority 2001, dated 2007)

Key:
Format in all cases: in vivo
Chenopodium album [1] = assay: Test Example 1 upland field foliage treatment; details: Table 4, upland field foliage treatment, index 0-5
Procedure, shortened: (§1)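 Seeds sown in upland soil in pots and covered with about 1 cm soil; on day 14 after sowing, diluted wettable powder applied uniformly to leaves at 1 kg active ingredient per hectare. Weed control or crop phytotoxicity scored visually 21 days after application on a 0–5 scale (5 = ≥90%, 0 = <10%).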

Digitaria adscendens [2] = assay: Test Example 1 upland field foliage treatment; details: Table 4, upland field foliage treatment, index 0-5
Procedure, shortened: as §1

Setaria viridis [3] = assay: Test Example 1 upland field foliage treatment; details: Table 4, upland field foliage treatment, index 0-5
Procedure, shortened: as §1

Stellaria media [4] = assay: Test Example 1 upland field foliage treatment; details: Table 4, upland field foliage treatment, index 0-5
Procedure, shortened: as §1

soybean (Glycine max) [5] = assay: Test Example 1 upland field foliage treatment, crop phytotoxicity; details: Table 4, upland field foliage treatment, index 0-5
Procedure, shortened: as §1

[6] = system: wheat (Triticum aestivum); assay: as above; details: Table 4, upland field foliage treatment, index 0-5
Procedure, shortened: as §1

Chenopodium album [7] = assay: Test Example 2 upland soil treatment; details: Table 5, upland soil treatment, index 0-5
Procedure, shortened: (§2)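 Score 0–5 read at day 21 (5 = ≥90% effect or phytotoxicity, 0 = <10%). Wettable powder diluted in water to 1 kg a.i./ha, applied uniformly to upland soil one day after sowing; seeds covered with ~1 cm soil.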

Digitaria adscendens [8] = assay: Test Example 2 upland soil treatment; details: Table 5, upland soil treatment, index 0-5
Procedure, shortened: as §2

Setaria viridis [9] = assay: Test Example 2 upland soil treatment; details: Table 5, upland soil treatment, index 0-5
Procedure, shortened: as §2

Stellaria media [10] = assay: Test Example 2 upland soil treatment; details: Table 5, upland soil treatment, index 0-5
Procedure, shortened: as §2

soybean (Glycine max) [11] = assay: Test Example 2 upland soil treatment, crop phytotoxicity; details: Table 5, upland soil treatment, index 0-5
Procedure, shortened: as §2

[12] = system: wheat (Triticum aestivum); assay: as above; details: Table 5, upland soil treatment, index 0-5
Procedure, shortened: as §2

Ammannia multiflora = assay: Test Example 3 paddy field treatment; details: Table 6, paddy field treatment, active ingredient 1 kg per hectare, 21st day after dropping, index 0-5
Procedure, shortened: (§3)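 Weed seeds sown in puddled paddy soil under 4 cm water, with two-leaf Koshihikari rice transplanted; 10 days later a wettable powder was applied to the water surface at 1 kg active ingredient/ha. Scored 21 days after application on a 0–5 scale (0 = <10%, 5 = ≥90% herbicidal effect or phytotoxicity).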

Echinochloa crusgalli = assay: Test Example 3 paddy field treatment; details: Table 6, paddy field treatment, active ingredient 1 kg per hectare, 21st day after dropping, index 0-5
Procedure, shortened: as §3

Monochoria vaginalis = assay: Test Example 3 paddy field treatment; details: Table 6, paddy field treatment, active ingredient 1 kg per hectare, 21st day after dropping, index 0-5
Procedure, shortened: as §3

Scirpus juncoides = assay: Test Example 3 paddy field treatment; details: Table 6, paddy field treatment, active ingredient 1 kg per hectare, 21st day after dropping, index 0-5
Procedure, shortened: as §3

Rice (Oryza sativa) = assay: Test Example 3 paddy field treatment, crop phytotoxicity; details: Table 6, paddy field treatment, transplanted rice, active ingredient 1 kg per hectare, 21st day after dropping, index 0-5
Procedure, shortened: as §3

## CON=C(Cn1cc(C)c(-c2ccccc2)n1)C(=O)N1CCOCC1 [Compound 120]
Chenopodium album [1]
  Herbicidal activity CA: Chenopodium album: 5 (herbicidal effect of not less than 90%, or phytotoxicity of 90% or more)
Digitaria adscendens [2]
  Herbicidal activity DA: Digitaria adscendens: 4 (herbicidal effect of not less than 70% and less than 90%, or phytotoxicity of 70% or more and less than 90%)
Setaria viridis [3]
  Herbicidal activity SV: Setaria viridis: 4 (herbicidal effect of not less than 70% and less than 90%, or phytotoxicity of 70% or more and less than 90%)
Stellaria media [4]
  Herbicidal activity SM: Stellaria media: 4 (herbicidal effect of not less than 70% and less than 90%, or phytotoxicity of 70% or more and less than 90%)
Soybean (Glycine max) [5]
  Herbicidal activity (phytotoxicity) GM: Soybean (Glycine max): 0 (herbicidal effect of not less than 0% and less than 10%, or phytotoxicity of 0% or more and less than 10%)
[6]
  Herbicidal activity (phytotoxicity) TA: Wheat (Triticum aestivum): 0 (herbicidal effect of not less than 0% and less than 10%, or phytotoxicity of 0% or more and less than 10%)
Chenopodium album [7]
  Herbicidal activity CA: Chenopodium album: 4 (herbicidal effect of not less than 70% and less than 90%, or phytotoxicity of 70% or more and less than 90%)
Digitaria adscendens [8]
  Herbicidal activity DA: Digitaria adscendens: 4 (herbicidal effect of not less than 70% and less than 90%, or phytotoxicity of 70% or more and less than 90%)
Setaria viridis [9]
  Herbicidal activity SV: Setaria viridis: 3 (herbicidal effect of not less than 50% and less than 70%, or phytotoxicity of 50% or more and less than 70%)
Stellaria media [10]
  Herbicidal activity SM: Stellaria media: 4 (herbicidal effect of not less than 70% and less than 90%, or phytotoxicity of 70% or more and less than 90%)
Soybean (Glycine max) [11]
  Herbicidal activity (phytotoxicity) GM: Soybean (Glycine max): 0 (herbicidal effect of not less than 0% and less than 10%, or phytotoxicity of 0% or more and less than 10%)
[12]
  Herbicidal activity (phytotoxicity) TA: Wheat (Triticum aestivum): 0 (herbicidal effect of not less than 0% and less than 10%, or phytotoxicity of 0% or more and less than 10%)
Ammannia multiflora
  Herbicidal activity AM: 4 (herbicidal effect of not less than 70% and less than 90%, or phytotoxicity of 70% or more and less than 90%)
Echinochloa crusgalli
  Herbicidal activity EC: 3 (herbicidal effect of not less than 50% and less than 70%, or phytotoxicity of 50% or more and less than 70%)
Monochoria vaginalis
  Herbicidal activity MV: 4 (herbicidal effect of not less than 70% and less than 90%, or phytotoxicity of 70% or more and less than 90%)
Scirpus juncoides
  Herbicidal activity SJ: 3 (herbicidal effect of not less than 50% and less than 70%, or phytotoxicity of 50% or more and less than 70%)
Rice (Oryza sativa)
  Herbicidal activity (phytotoxicity) OS: 0 (herbicidal effect of not less than 0% and less than 10%, or phytotoxicity of 0% or more and less than 10%)

## CON=C(Cn1cc(C)c(-c2ccccc2)n1)C(=O)N1CCSCC1 [Compound 122]
Chenopodium album [1]
  Herbicidal activity CA: Chenopodium album: 4 (herbicidal effect of not less than 70% and less than 90%, or phytotoxicity of 70% or more and less than 90%)
Digitaria adscendens [2]
  Herbicidal activity DA: Digitaria adscendens: 4 (herbicidal effect of not less than 70% and less than 90%, or phytotoxicity of 70% or more and less than 90%)
Setaria viridis [3]
  Herbicidal activity SV: Setaria viridis: 4 (herbicidal effect of not less than 70% and less than 90%, or phytotoxicity of 70% or more and less than 90%)
Stellaria media [4]
  Herbicidal activity SM: Stellaria media: 4 (herbicidal effect of not less than 70% and less than 90%, or phytotoxicity of 70% or more and less than 90%)
Soybean (Glycine max) [5]
  Herbicidal activity (phytotoxicity) GM: Soybean (Glycine max): 0 (herbicidal effect of not less than 0% and less than 10%, or phytotoxicity of 0% or more and less than 10%)
[6]
  Herbicidal activity (phytotoxicity) TA: Wheat (Triticum aestivum): 0 (herbicidal effect of not less than 0% and less than 10%, or phytotoxicity of 0% or more and less than 10%)
Chenopodium album [7]
  Herbicidal activity CA: Chenopodium album: 4 (herbicidal effect of not less than 70% and less than 90%, or phytotoxicity of 70% or more and less than 90%)
Digitaria adscendens [8]
  Herbicidal activity DA: Digitaria adscendens: 3 (herbicidal effect of not less than 50% and less than 70%, or phytotoxicity of 50% or more and less than 70%)
Setaria viridis [9]
  Herbicidal activity SV: Setaria viridis: 3 (herbicidal effect of not less than 50% and less than 70%, or phytotoxicity of 50% or more and less than 70%)
Stellaria media [10]
  Herbicidal activity SM: Stellaria media: 4 (herbicidal effect of not less than 70% and less than 90%, or phytotoxicity of 70% or more and less than 90%)
Soybean (Glycine max) [11]
  Herbicidal activity (phytotoxicity) GM: Soybean (Glycine max): 0 (herbicidal effect of not less than 0% and less than 10%, or phytotoxicity of 0% or more and less than 10%)
[12]
  Herbicidal activity (phytotoxicity) TA: Wheat (Triticum aestivum): 0 (herbicidal effect of not less than 0% and less than 10%, or phytotoxicity of 0% or more and less than 10%)
Ammannia multiflora
  Herbicidal activity AM: 4 (herbicidal effect of not less than 70% and less than 90%, or phytotoxicity of 70% or more and less than 90%)
Echinochloa crusgalli
  Herbicidal activity EC: 4 (herbicidal effect of not less than 70% and less than 90%, or phytotoxicity of 70% or more and less than 90%)
Monochoria vaginalis
  Herbicidal activity MV: 4 (herbicidal effect of not less than 70% and less than 90%, or phytotoxicity of 70% or more and less than 90%)
Scirpus juncoides
  Herbicidal activity SJ: 3 (herbicidal effect of not less than 50% and less than 70%, or phytotoxicity of 50% or more and less than 70%)
Rice (Oryza sativa)
  Herbicidal activity (phytotoxicity) OS: 0 (herbicidal effect of not less than 0% and less than 10%, or phytotoxicity of 0% or more and less than 10%)
